From patent US7304129B2 (Imperial Innovations Limited, priority 2000, dated 2007)
“And” between values parts separate entries of the source, which are not always exact repeats. Equal values may be shown once. “Also recorded” adds a separate entry of the source. Positions of bridges follow the written chain, without caps; N, C: chain ends. Chains are numbered I, II in the order given. No end group written: not given here.

Legend:
NIH3T3 cells = experiment: cell survival/proliferation at two plating densities; conditions: 11,000 cells per well; FGF2 10 ng/ml
Source text: FGF2 is a mitogen for a range of cells, including NIH3T3 cells.

NIH 3T3 cells [1] = experiment: NIH 3T3 survival and morphology, TRITC-conjugated phalloidin staining; format: cell-based; conditions: three days; insulin 0.5 pg/ml, FGF2 0.1 ng/ml, Peptide A(d) 10 ng/ml
[2] = test system: cells growing in the presence of FGF2 or Peptide A(d); experiment: mitogenesis by observation of cells growing (rounding-up, cell number); format: cell-based
Source text: FGF stimulates axonal regeneration, cell survival and mitogenesis. […] This can be seen by the failure of Peptide A(d)-treated cells to show the rounding-up characteristic of cell division, and there is not the increase in cell number observed in the presence of a mitogenic stimulation by FGF2.

[3] = test system: Oligodendrocyte progenitors (O4 positive); format: cell-based, rat; conditions: six days in culture
Source text: Oligodendrocyte progenitors (O4 positive) are purified from postnatal day 4 rat cerebral cortex. First a trypsinised preparation of cortical cells is dissociated to single cell suspension and pre-plated to remove unwanted adherent cells such as microglia and macrophages. Oligodendrocyte progenitors express the O4 antigen, and can be purified by panning on petri-dishes coated with anti O4 antibodies. Unbound cells are removed by gentle washing, then O4 positive cells are removed by triturating them off the plate with DMEM containing 1% FCS, through a flame-polished pasteur pipette. O4 positive cells are plated on polyornithine-coated glass coverslips at a density of 500,000 cells per well in minimal growth medium containing insulin or the peptide Ac-DRVEPYSSTA[lys]2[lys] i.e. [{Ac-DRVEPYSSTA}2-K]2-K-OH, Peptide A(d), for six days, before being fixed and stained with the anti O4 antibody. Viable O4 positive cells are counted for each condition

NIH 3T3 fibroblasts = experiment: survival of 3T3 fibroblasts in serum-free DMEM (MTS and morphologic method, Example 5a); format: cell-based
Protocol: NIH 3T3 fibroblasts were plated in each well of a 96-well microtitre plate at a density of 7,000 cells per well in DMEM containing 3% FCS and left to attach overnight. The following day the growth medium was removed and replaced with 0.1 ml DMEM supplemented with FGF or Peptide A(d) or both, eight wells for each condition. The negative control was DMEM alone (maximal cell death) and the positive control was supplementation with 0.5% FCS (maximal cell survival).
Six days later (seven days from first plating the cells), the relative number of living cells in each well was assessed by adding the mitochondrial substrate MTS, [3-(4,5-dmethylthiazol-2-yl)-5-(3-carboxymethoxyphenyl)-2-(4-sulphophenyl)-2H-tetrazolium, inner salt), for four hours before reading the optical density on a microtitre plate reader at a wavelength of 490 nm. The optical density gives a measure of the number of respiring cells present in each well at the end of the assay period.
In addition to the biochemical assay, survival was assessed qualitatively using a morphologic method in which cells were plated in 8-chamber Lab Tek slides in DbEM alone (negative control), or DMEM supplemented with 0.5 ng/ml FGF2; 0.5% FCS (positive control), or 25-200 μg/ml Peptide A(d). After three days the cells were fixed with 4% paraformaldehyde, permeablised with methanol and stained with TRITC-conjugated falloidin to visualise the cell cytoskeleton.

cerebellar neurons = experiment: survival of neurons (Example 5b); format: cell-based
NIH 3T3 cells [4] = experiment: NIH 3T3 cell survival MTS assay in serum-free DMEM (Example 6); format: cell-based
Protocol: NIH 3T3 cells are plated in 96-well plates at a density of 5,500 cells/well in 100 μl DMEM containing 0.5% FCS. After 24 hours, this medium is aspirated from the wells and replaced with 100 μl serum-free DMEM alone, or supplemented with 0.5% FCS (positive control), or a single potential survival factor, with four identical wells set up for each condition. The cells are left for up to seven days at 37 degrees and 8% CO2 before the cell survival is determined using an MTS assay. In this assay 20 μl of MTS substrate is added to each 100 μl well and the plate left in the incubator for up to four hours. Respiring cells produce a coloured reaction product that can be read using a spectrophotometer at 490 nm. […] The mean absorbance at 490 nm+/−SEM is determined for the four identically set up wells. Wells containing a known survival factor such as insulin will contain more living cells after three days than cells cultured in unsupplemented medium.

[5] = test system: rat cerebellar granule neurons cultured on monolayers of NIH 3T3 fibroblasts; experiment: in vitro neurite outgrowth co-culture assay (axon regeneration); format: cell-based
Protocol: An example of such an assay is a co-culture assay in which neurons are cultured on top of cellular monolayers for 16 hours, before being fixed and stained with a neuron-specific antibody. The mean length of the longest neurite per cell can then be determined by fluorescence microscopy using an appropriate image analysis programme. The neurons may be, for example, (in this case cerebellar granule cell neurons, hippocampal, dorsal root ganglion, olfactory, motor or dopaminergic neurons. The cellular monolayer is, for example NIH 3T3 fibroblasts.
Monolayers of NIH 3T3 fibroblasts were established by seeding 80,000 cells per well in Lab-Tek 8-chamber slides previously coated sequentially with poly-L-lysine and fibronectin and culturing them overnight in DMEM+10% FCS growth medium.
Cerebellum was dissected from post-natal day 2-4 rat pups and the meninges and extraneous tissue discarded. Cerebellum was chopped into small pieces and trypsinised for 10 minutes at 37° C. Trypsin was neutralised using growth medium and the cells pelletted at 1000×g for 7 minutes. Cerebellar neurons were then resuspended in SATO growth medium containing 2% FCS, counted, and plated on top of the fibroblast monolayer at a density of 1,500 neurons per well. After 16 hours, cocultures were fixed with 4% para-formaldehyde and stained with an anti-GAP43 neuron-specific antibody, which was a gift from Dr Graham Wilkin, Imperial College Department of Biochemistry, London, but any other neuron-specific marker can be used.
The mean neurite length of 150-200 neurons per well was determined using a fluorescent microscope and Zeiss KS300 imaging software.
Peptides A, A(d), B, C, D, E, and F were each incorporated in the SATO medium at a range of concentrations from 0 to 200 μg/ml. Nerve growth factor (NGF) and fibroblast growth factor (FGF2) were used as controls at the same range of concentrations.

L6 cell line = experiment: survival of L6 cell line lacking FGF receptors; format: cell-based; conditions: FGF2 0.1, 1 and 10 ng/ml; Peptide A(d) 100 and 400 μg/ml
Protocol: FIG. 2d compares the effects of DMEM, FCS, FGF2 at 0.1, 1 and 10 ng/ml, insulin at 0.5 and 5 μg/ml, and Peptide A(d) at 100 and 400 μg/ml.

MAP kinase = experiment: Western blot for tyrosine phosphorylated MAP kinase in NIH 3T3 cells; format: cell-based; conditions: peptide 400 μg/ml, 10 minutes
Protocol: A Western blot (FIG. 2f) was obtained as follows: one million NIH 3T3 cells were serum starved for 24 hours then challenged with the following agents: DMEM, 10% FCS, 0.1 ng/ml FGF2, 1 ng/ml FGF2, 10 ng/ml FGF2, 5 μg/ml insulin, 400 μg/ml peptide 52 for 10 minutes at 37 degrees Celsius before being lysed in sample buffer and band separated by PAGE. Proteins were transferred to PVDF membranes and probed with an antibody that recognises tyrosine phosphorylated MAP kinse (upper panel).

[6] = test system: cells in S phase (bromodeoxyuridine incorporation into DNA); experiment: bromodeoxyuridine incorporation (entry into S phase) mitogenicity assay; format: cell-based; conditions: peptide, any of the concentrations tested
Protocol: The mitogenicity of an agent can be determined by testing its ability to stimulate entry of cells into ‘S’ phase in readiness for cell division. This is done by standard methodology and involves incubating cells in the presence of a potential mitogen in DMEM supplemented with bromodeoxyuridine. After six hours the cells are fixed and stained with an antibody recognising bromodeoxyuridine. Cells in S phase can be distinguished by their incorporation of bromodeoxyuridine into DNA.

mitogenesis (observation of cells) [2]: does not stimulate mitogenesis
Substance: I: Ac-DRVEPYSSTAKK / II: Ac-DRVEPYSSTAK / III: Ac-DRVEPYSSTA / IV: Ac-DRVEPYSSTA (amide I:11-IV:C, I:12-II:C, II:11-III:C) [Peptide A(d), [{Ac-DRVEPYSSTA}2-K]2-K-OH]
cell proliferation (NIH3T3 cells): does not stimulate proliferation
cell survival / morphology (NIH 3T3 cells [1]): stimulate cell survival
oligodendrocyte survival (in words) [3]: dose-dependent survival effect
cell survival with combination (NIH 3T3 fibroblasts; DMEM supplemented with Peptide A(d) together with FGF2): greater than with either agent alone
survival of 3T3 fibroblasts (NIH 3T3 fibroblasts; Peptide A(d) alone at 25 μg/ml): stimulated the survival of 3T3 fibroblasts to the same extent as 0.125 ng/ml FGF2
stimulation of survival compared with positive control 0.5% FCS (NIH 3T3 fibroblasts; all concentrations (25-200 μg/ml)): at least as good as the positive control
survival of cerebellar neurons (cerebellar neurons): stimulate survival of cerebellar neurons
survival of NIH3T3 cells in serum-free conditions (in words) (NIH 3T3 cells [4]; FGF2 only at low concentrations): stimulates dose-dependent survival
time over which survival is stimulated in serum-free conditions (NIH 3T3 cells [4]; maximum time tested): at least seven days
concentration stimulating maximal neurite outgrowth [5]: 400 nM
stimulation of neurite outgrowth (in words) ([5]; agent included in coculture medium, 16 hour culture): bi-phasic dose-response curve
peptide concentration giving maximal effects in neurite outgrowth assay ([5]; rat cerebellar neurons on 3T3 monolayer, 16 hours): 1.5-2.5 μg/ml and ~0.4 μM
potency in stimulating neurite outgrowth relative to the monomeric peptide ([5]; versus monomeric peptide): 250 times
survival of L6 cell line (L6 cell line): unable to stimulate the survival
MAP kinase activation (MAP kinase): do not
MAP kinase activation (MAP kinase; listed as Ac-DRVEPYSSTA[lys]2[lys]): do not
MAP kinase activation (MAP kinase; listed as peptide 52): did not
mitogenicity (entry into S phase) [6]: unable to stimulate entry into S phase; also recorded: not mitogenic at any of the concentrations tested
